Results taken from US11583529B2, “Treatment of inflammatory disorders” (Aldeyra Therapeutics, Inc., priority 2017, dated 2023).

Assays:
[1] = test system: rat model of endotoxin induced uveitis; experiment: Rat model of endotoxin-induced uveitis (EIU), topical or intravitreal treatment; assay type: in vivo, female Lewis rats
Protocol: An in vivo study was conducted to assess the efficacy of intravitreal administration of compound I-22 in a rat model of endotoxin induced uveitis, one of the most appropriate models for the study of NIU (Smith et al., 1998) (Toxikon Study 16-04078-N1). Ocular inflammation was induced in female Lewis rats (n=10/group) by a single foot pad injection of LPS (100 μL) (Herbort et al., 1988, Graefe's Arch Clin Exp Ophthalmol. 226:553-558). Compound I-22 (5 mg/mL) was administered intravitreally into each eye (25 μg/eye), or topically to both eyes at 1, 3, 7, 10, and 17 hours post-LPS injection, within one hour of LPS administration. Balanced salt solution (BSS) served as a vehicle control. Retinal exams were performed prior to study start and six and 24 hours following LPS administration and scored using a Combined Draize and McDonald Shadduck scoring system, based on assessments of: retinal vasculopathy and retinal hemorrhage, exudate, and detachment.
Endotoxin-induced uveitis was created by a single injection of lipopolysaccharide (LPS; 100 μL) into one hind footpad. Ten (10) female Lewis rats per group received control (balanced salt solution, BSS) or test article (compound I-22) topically to both eyes at 1, 3, 7, 10, and 17 hours post-LPS injection. At each dosing time point, two drops (5 μL each, separated by approximately two minutes, for a total of 10 μL/eye/dose) were instilled into each eye of the animals. Ten female Lewis rats per group received control (BSS) or compound I-22 by a single intravitreal injection (IVT) in each eye at one hour post-LPS injection. Each eye received 5 μL of vehicle or test article.
Animals were anesthetized with isoflurane 1-3.5% for ophthalmic examinations. Both eyes of each animal were evaluated pre-dose using slit-lamp biomicroscopy, and an indirect ophthalmoscope or a surgical microscope, according to the Combined Draize and McDonald-Shadduck Scoring System, and the Ocular Posterior Segment Scoring Scale. All pupils were dilated with 1% tropicamide ophthalmic solution before ocular examination. Only rats showing no signs of eye irritation, ocular defects or preexisting corneal injury were used in the study.
Ophthalmic examinations were performed on both eyes of each animal approximately six and 24 hours following LPS administration, using slit-lamp biomicroscopy and a surgical microscope or via indirect ophthalmoscopy. Pupils were dilated with 1% Tropicamide Ophthalmic Solution before ophthalmic examinations.
Quantitative, continuous data from this study were analyzed using one-way ANOVA. Alternative or additional statistical methods were used as necessary.
In the same study, the efficacy of compound 1-5 was compared to that of compound 1-22. Compound 1-5 was topically administered topically to the eye at hours 1, 3, 7, 10, and 17, after LPS induction, or by a single intravitreal (IVT) injection one hour after LPS induction (n=10 per group), as was compound I-22. Ocular exams were performed 6 and 24 hours after LPS injection. Anterior segments were scored using a combined Draize and McDonald-Shadduck scoring system, and posterior segments were scored using 0 to 1 (vitreous, optic disc, retinal vasculature) and 0 to 4 (retinal and choroidal hemorrhage, exudation, and detachment) scales. Statistical significance from vehicle control was determined by ANOVA, followed by Tukey's post hoc test.

[2] = test system: dextran sulfate sodium (DSS)-induced acute ulcerative colitis (UC); experiment: 7-Day DSS-induced acute ulcerative colitis model; assay type: in vivo, female Swiss Webster mice; details: vs PO vehicle
Dry Eye Disease (DED) = experiment: Phase 2b clinical study of I-5 Ophthalmic Solution (0.25% and 0.1%) vs vehicle in subjects with dry eye disease; assay type: in vivo, human; details: for Reason for Study Withdrawal: Adverse Events / Study Completion: Discontinued: N = 100
Source text: Objectives: • To evaluate the efficacy of I-5 Ophthalmic Solutions (0.25% and 0.1%) on baseline to weeks 2, 4, 8, and 12 change scores for sign and symptom endpoints of dry eye disease. • To evaluate effect sizes for efficacy endpoints of I-5 Ophthalmic Solutions (0.25% and 0.1%) vs vehicle for the treatment of the signs and symptoms of dry eye disease to confirm the endpoint selection and sample size for Phase 3 studies. • To evaluate the safety and tolerability of I-5 Ophthalmic Solutions (0.25% and 0.1%) to vehicle for the treatment of the signs and symptoms of dry eye disease.
Treatment: During the 12-week (84±3 days) treatment period, I-5 Ophthalmic Solution at concentrations of 0.1%, 0.25%, or vehicle ophthalmic solution was administered QID by bilateral topical ocular dosing. Subjects were randomized to one of three treatment groups (1:1:1) to receive study drug after the Post-CAE® assessments at Visit 2.
Summary of Visit Schedule: Six visits over the course of approximately 14 weeks • Visit 1=Day −14±2, CAE® Screening • Visit 2=Day 1, CAE® Confirmation/Baseline • Visit 3=Day 15±2, 2-Week Follow-Up • Visit 4=Day 29±2, 4-Week Follow-Up • Visit 5=Day 57±3, 8-Week Follow-Up • Visit 6=Day 85±3, 12-Week CAE® Follow-Up & Study Exit
Note: a subject could not have an Ocular Discomfort score of 4 at time=0); • 12 Had at least one eye, the same eye, satisfy all criteria for 6, 7, 8, 9, 10, and 11 above.
Safety Measures: • Visual acuity • Slit-lamp evaluation • Adverse event query • Intraocular Pressure (IOP) • Dilated fundoscopy
Efficacy Analysis • Evaluated baseline to weeks 2, 4, 8 and 12 change scores with I-5 on DED sign and symptom endpoints (both pre-CAE and CAE endpoints). Each endpoint was analyzed at a two-sided alpha level of 0.05, and the overall type I error was not controlled for in this investigative study. • Evaluated effect size of baseline to weeks 2, 4, 8 and 12 change scores of I-5 vs vehicle on DED sign and symptom endpoints (both pre-CAE and CAE endpoints) to confirm the endpoint selection for primary outcome parameters and sample size for Phase 3 studies with I-5. • Sub-group analyses on effect size of baseline to weeks 2, 4, 8 and 12 change scores of I-5 vs vehicle on DED sign and symptom endpoints (both pre-CAE and CAE endpoints) [Subgroups were prospectively detailed in the Statistical Analysis Plan (SAP)].

[3] = intravitreal administration, vs vehicles
[4] = 200 mg/kg PO BID, Days −3 through 6
[5] = 0.25% group, majority (>50-100%) of effect vs vehicle at first study endpoint (Week 2 or 4)

CC(C)(O)c1nc2ccc(Cl)cc2cc1N [Compound I-5]
ocular exam scores ([1]; IVT, vs vehicle): significantly improved | Total ocular inflammation [1, 3]: lower | anterior chamber inflammation [1, 3]: lower | retina-choroid inflammation [1, 3]: lower | signs of inflammation in the rat EIU model ([1]; overall): reduced | response in the EIU model ([1]; overall, I-22 compared with I-5): positive response | ocular exam scores ([1]; topical (TO), 6 hours and 24 hours, vs vehicle): significantly improved | Total ocular inflammation score ([1]; topical (TO), vs vehicle): lower | anterior chamber inflammation score ([1]; topical (TO), vs vehicle): lower | retina-choroid inflammation score ([1]; topical (TO), vs vehicle): lower | Body weights ([2]; 200 mg/kg PO BID (Groups 5, 6, 7, 8, 9, and 10)): did not differ significantly | proximal colon edema, reduction [2, 4]: 63% | proximal colon erosion, reduction [2, 4]: 73% | Reason for Study Withdrawal: Adverse Events (Dry Eye Disease (DED); 0.1% QID): 2 (2.0%) | Study Completion: Discontinued (Dry Eye Disease (DED); 0.1% QID): 3 (3.0%) | effects at later time points (Dry Eye Disease (DED); 0.1%, clearest with signs, especially ocular staining): Matched Higher Dose Effects at Later Time Points | Reason for Study Withdrawal: Adverse Events (Dry Eye Disease (DED); 0.25% QID): 10 (10.0%) | Study Completion: Discontinued (Dry Eye Disease (DED); 0.25% QID): 12 (12.0%) | early onset of effect, sign endpoints (Lissamine green total score, fluorescein total score, tear osmolarity positive; TFBUT negative) (Dry Eye Disease (DED); [5]): Positive early onset for 3 out of 4 sign endpoints | early onset of effect, symptom endpoints (ODS, OD4SQ, OSDI positive; SANDE negative) (Dry Eye Disease (DED); [5]): Positive early onset for 3 out of 4 symptom endpoints | Fluorescein Staining: Central (0-4); Dose Trend? (Dry Eye Disease (DED); ITT, observed data only): ✓ | Fluorescein Staining: Central (0-4); Drug Trend? (Dry Eye Disease (DED); ITT, observed data only): ✓ | Fluorescein Staining: Conjunctival Sum Score (Nasal and Temporal) (0-8; Σ 2×); Dose Trend? (Dry Eye Disease (DED); ITT, observed data only): ✓ | Fluorescein Staining: Conjunctival Sum Score (Nasal and Temporal) (0-8; Σ 2×); Drug Trend? (Dry Eye Disease (DED); ITT, observed data only): ✓ | Fluorescein Staining: Corneal Sum Score (Inferior, Superior, and Central) (0-12; Σ 3×); Drug Trend? (Dry Eye Disease (DED); ITT, observed data only): ✓ | Fluorescein Staining: Inferior (0-4); Drug Trend? (Dry Eye Disease (DED); ITT, observed data only): ✓ | Fluorescein Staining: Nasal (0-4); Dose Trend? (Dry Eye Disease (DED); ITT, observed data only): ✓ | Fluorescein Staining: Nasal (0-4); Drug Trend? (Dry Eye Disease (DED); ITT, observed data only): ✓ | Fluorescein Staining: Temporal (0-4); Dose Trend? (Dry Eye Disease (DED); ITT, observed data only): ✓ | Fluorescein Staining: Temporal (0-4); Drug Trend? (Dry Eye Disease (DED); ITT, observed data only): ✓ | Fluorescein Staining: Total Score (all five regions) (0-20; Σ 5×); Drug Trend? (Dry Eye Disease (DED); ITT, observed data only): ✓ | OD & 4-Symptom Questionnaire: Burning (0-5); Drug Trend? (Dry Eye Disease (DED); ITT, observed data only): ✓ | OD & 4-Symptom Questionnaire: Dryness (0-5); Dose Trend? (Dry Eye Disease (DED); ITT, observed data only): ✓ | OD & 4-Symptom Questionnaire: Dryness (0-5); Drug Trend? (Dry Eye Disease (DED); ITT, observed data only): ✓ | OD & 4-Symptom Questionnaire: Grittiness (0-5); Dose Trend? (Dry Eye Disease (DED); ITT, observed data only): ✓ | OD & 4-Symptom Questionnaire: Grittiness (0-5); Drug Trend? (Dry Eye Disease (DED); ITT, observed data only): ✓ | OD & 4-Symptom Questionnaire: Overall Ocular Discomfort (0-5); Dose Trend? (Dry Eye Disease (DED); ITT, observed data only): ✓ | OD & 4-Symptom Questionnaire: Overall Ocular Discomfort (0-5); Drug Trend? (Dry Eye Disease (DED); ITT, observed data only): ✓ | OD & 4-Symptom Questionnaire: Stinging (0-5); Dose Trend? (Dry Eye Disease (DED); ITT, observed data only): ✓ | OD & 4-Symptom Questionnaire: Stinging (0-5); Drug Trend? (Dry Eye Disease (DED); ITT, observed data only): ✓ | Ocular Discomfort Scale (0-4); Dose Trend? (Dry Eye Disease (DED); ITT, observed data only): ✓ | Ocular Discomfort Scale (0-4); Drug Trend? (Dry Eye Disease (DED); ITT, observed data only): ✓ | Ocular Surface Disease Index (OSDI) (0-100); Dose Trend? (Dry Eye Disease (DED); ITT, observed data only): ✓ | Ocular Surface Disease Index (OSDI) (0-100); Drug Trend? (Dry Eye Disease (DED); ITT, observed data only): ✓ | Osmolarity (mOsm/L); Drug Trend? (Dry Eye Disease (DED); ITT, observed data only): ✓ | SANDE Questionnaire Frequency (0-100 mm); Drug Trend? (Dry Eye Disease (DED); ITT, observed data only): ✓ | SANDE Questionnaire Severity (0-100 mm); Dose Trend? (Dry Eye Disease (DED); ITT, observed data only): ✓ | SANDE Questionnaire Severity (0-100 mm); Drug Trend? (Dry Eye Disease (DED); ITT, observed data only): ✓ | Schirmer’s Test (mm); Dose Trend? (Dry Eye Disease (DED); ITT, observed data only): ✓ | Schirmer’s Test (mm); Drug Trend? (Dry Eye Disease (DED); ITT, observed data only): ✓ | Tear Film Break-up Time (sec); Dose Trend? (Dry Eye Disease (DED); ITT, observed data only): ✓ | Usamine Green Staining: Central (0-4); Dose Trend? (Dry Eye Disease (DED); ITT, observed data only): ✓ | Usamine Green Staining: Central (0-4); Drug Trend? (Dry Eye Disease (DED); ITT, observed data only): ✓ | Usamine Green Staining: Conjunctival Sum Score (Nasal and Temporal) (0-8; Σ 2×); Dose Trend? (Dry Eye Disease (DED); ITT, observed data only): ✓ | Usamine Green Staining: Conjunctival Sum Score (Nasal and Temporal) (0-8; Σ 2×); Drug Trend? (Dry Eye Disease (DED); ITT, observed data only): ✓ | Usamine Green Staining: Corneal Sum Score (Inferior, Superior, and Central) (0-12; Σ 3×); Dose Trend? (Dry Eye Disease (DED); ITT, observed data only): ✓ | Usamine Green Staining: Corneal Sum Score (Inferior, Superior, and Central) (0-12; Σ 3×); Drug Trend? (Dry Eye Disease (DED); ITT, observed data only): ✓ | Usamine Green Staining: Inferior (0-4); Dose Trend? (Dry Eye Disease (DED); ITT, observed data only): ✓ | Usamine Green Staining: Inferior (0-4); Drug Trend? (Dry Eye Disease (DED); ITT, observed data only): ✓ | Usamine Green Staining: Nasal (0-4); Dose Trend? (Dry Eye Disease (DED); ITT, observed data only): ✓ | Usamine Green Staining: Nasal (0-4); Drug Trend? (Dry Eye Disease (DED); ITT, observed data only): ✓ | Usamine Green Staining: Superior (0-4); Dose Trend? (Dry Eye Disease (DED); ITT, observed data only): ✓ | Usamine Green Staining: Temporal (0-4); Dose Trend? (Dry Eye Disease (DED); ITT, observed data only): ✓ | Usamine Green Staining: Temporal (0-4); Drug Trend? (Dry Eye Disease (DED); ITT, observed data only): ✓ | Usamine Green Staining: Total Score (all five regions) (0-20; Σ 5×); Dose Trend? (Dry Eye Disease (DED); ITT, observed data only): ✓ | Usamine Green Staining: Total Score (all five regions) (0-20; Σ 5×); Drug Trend? (Dry Eye Disease (DED); ITT, observed data only): ✓ | Dose Response (Dry Eye Disease (DED); between 0.1% and 0.25% dose strengths): Demonstrated
